The source of these data is publication PMC10257517 (European Journal of Medicinal Chemistry, 2023).

For one series, the system named is VERO-E6 cells. As to the kind of experiment: MTT cytotoxicity assay. In kind it is cell-based. As to conditions: MTT, 24 h. On the technique in general: Formazan colour is commonly taken as a measure of viable cells.
The test system of series [1] is SARS-CoV-2 (hCoV-19/Egypt/NRC-03/2020). Format: cell-based. As to conditions: for Selectivity index (SI): SI=CC50/IC50.
The test system of the next series is SARS-CoV-2. As to conditions: read-out: EC50 (Vero-E6 cell); against SARS-CoV-2, Vero-E6 cell; cited from earlier work.
The target in series [2] is M^pro-SARS-CoV-2 (3CL Protease) (Severe acute respiratory syndrome coronavirus 2, UniProt P0DTD1). As to the kind of experiment: M^pro-SARS-CoV-2 inhibition, 3CL Protease. In kind it is biochemical.
A further series can be described thus: MTT cytotoxicity assay. Format: cell-based. As to conditions: African green monkey, VERO-E6 cells.

The compound “Diethyl (E)-[1′-methyl-2,4″-dioxo-4'-(thiophen-2-yl)-5''-(thiophen-2-ylmethylene)dispiro[indoline-3,2′-pyrrolidine-3′,3″-piperidin]-1″-yl]phosphonate [Compound 6k]” returned a CC50 with VERO-E6 cells of 49.9 µM. Moreover, half-maximal inhibition in series [1] (IC50) required 106 µM.
For “Diethyl (E)-[5-chloro-1′-methyl-2,4″-dioxo-4'-(thiophen-2-yl)-5''-(thiophen-2-ylmethylene)dispiro[indoline-3,2′-pyrrolidine-3′,3″-piperidin]-1″-yl]phosphonate [Compound 6l]”, it took 23.7 µM to reach half-maximal cytotoxicity in the series on VERO-E6 cells (CC50). This compound also returned an IC50 in series [1] of 578 µM.
As to `COc1cccc2[nH]c(C(=O)N[C@@H](CC(C)C)C(=O)N[C@@H](C[C@@H]3CCNC3=O)C(=O)CO)cc12` [PF-00835231], in the series with SARS-CoV-2, the EC50 is no more than 0.23 µM.
The compound `CCOP(=O)(OCC)N1C/C(=C\c2ccc(F)cc2)C(=O)C2(C1)C(c1ccc(F)cc1)CN(C)C21C(=O)Nc2ccc(Cl)cc21` (stereo not shown) [Compound 6d, Diethyl (E)-[5-chloro-5''-(4-fluorobenzylidene)-4'-(4-fluorophenyl)-1′-methyl-2,4″-dioxodispiro[indoline-3,2′-pyrrolidine-3′,3″-piperidin]-1″-yl]phosphonate] yielded an IC50 in series [2] of 42.8 ± 2.53 µM. This compound also showed a half-maximal cytotoxic concentration (CC50) at 24 h in the series “MTT cytotoxicity assay” of 18.8 µM. In addition, in series [1], the “Selectivity index (SI)” value amounted to 1.39.
Turning to “Diethyl (E)-[1′-methyl-5''-(4-methylbenzylidene)-2,4″-dioxo-4'-(p-tolyl)dispiro[indoline-3,2′-pyrrolidine-3′,3″-piperidin]-1″-yl]phosphonate [Compound 6i]”, the CC50 in the series with VERO-E6 cells is 87 µM. Moreover, the IC50 in series [1] amounted to 35.2 µM.
“Diethyl (E)-(5″-benzylidene-1′-methyl-2,4″-dioxo-4′-phenyldispiro[indoline-3,2′-pyrrolidine-3′,3″-piperidin]-1″-yl)phosphonate [Compound 6a]” showed a CC50 in the series on VERO-E6 cells of 73.1 µM. In series [1], the IC50 worked out at 88.6 µM.
For the compound “Diethyl (E)-[5''-(4-chlorobenzylidene)-4'-(4-chlorophenyl)-1′-methyl-2,4″-dioxodispiro[indoline-3,2′-pyrrolidine-3′,3″-piperidin]-1″-yl]phosphonate [Compound 6e]”, in the series with VERO-E6 cells, the CC50 amounted to 9.83 µM. In series [1], this compound gave an IC50 of 340 µM.
In series [2], `CCOP(=O)(OCC)N1C/C(=C\c2ccccc2)C(=O)C2(C1)C(c1ccccc1)CN(C)C21C(=O)Nc2ccc(Cl)cc21` (stereo not shown) [Compound 6b, Diethyl (E)-(5″-benzylidene-5-chloro-1′-methyl-2,4″-dioxo-4′-phenyldispiro[indoline-3,2′-pyrrolidine-3′,3″-piperidin]-1″-yl)phosphonate] returned an IC50 of 9.6 ± 0.66 µM. In addition, in the series “MTT cytotoxicity assay”, the midpoint of cytotoxicity, the CC50 at 24 h, lay at 22 µM. Moreover, the “Selectivity index (SI)” value in series [1] is given as 2.12.
The compound “Diethyl (E)-[5-chloro-1′-methyl-5''-(4-methylbenzylidene)-2,4″-dioxo-4'-(p-tolyl)dispiro[indoline-3,2′-pyrrolidine-3′,3″-piperidin]-1″-yl]phosphonate [Compound 6j]” gave a CC50 in the series on VERO-E6 cells of 40.1 µM. The compound also displayed an IC50 in series [1] of 21.7 µM.
With `CCOP(=O)(OCC)N1C/C(=C\c2ccc(Br)cc2)C(=O)C2(C1)C(c1ccc(Br)cc1)CN(C)C21C(=O)Nc2ccccc21` (stereo not shown) [Compound 6g, Diethyl (E)-[5''-(4-bromobenzylidene)-4'-(4-bromophenyl)-1′-methyl-2,4″-dioxodispiro[indoline-3,2′-pyrrolidine-3′,3″-piperidin]-1″-yl]phosphonate], the midpoint of inhibition in series [2], the IC50, lay at 15.6 ± 1.02 µM. In the series “MTT cytotoxicity assay”, this compound came in with a CC50 at 24 h of 20.3 µM. In addition, the “Selectivity index (SI)” value in series [1] is recorded as 2.29.
“Diethyl (E)-[5''-(4-fluorobenzylidene)-4'-(4-fluorophenyl)-1′-methyl-2,4″-dioxodispiro[indoline-3,2′-pyrrolidine-3′,3″-piperidin]-1″-yl]phosphonate [Compound 6c]” registered a 50% cytotoxic concentration (CC50) in the series with VERO-E6 cells of 126 µM. Further, in series [1], the IC50 is 85.8 µM.
In the series with VERO-E6 cells, “Diethyl (E)-[5''-(4-methoxybenzylidene)-4'-(4-methoxyphenyl)-1′-methyl-2,4″-dioxodispiro[indoline-3,2′-pyrrolidine-3′,3″-piperidin]-1″-yl]phosphonate [Compound 6h]” had a CC50 of 38.3 µM. This compound also had an IC50 in series [1] of 46.7 µM.
“Diethyl (E)-[5-chloro-5''-(4-chlorobenzylidene)-4'-(4-chlorophenyl)-1′-methyl-2,4″-dioxodispiro[indoline-3,2′-pyrrolidine-3′,3″-piperidin]-1″-yl]phosphonate [Compound 6f]” came in with a CC50 in the series on VERO-E6 cells of 10 µM. Further, the IC50 in series [1] came out at 7.26 µM.

Usually CC50 stands for the concentration at which the toxic effect on the cells reaches its halfway point. A high value points to better tolerance by the cells. One may read the IC50 as the concentration at which inhibition is half-maximal. For orientation: EC50 means the concentration giving half of the maximal effect.
